The target of the assay is T1, PLK1 (Homo sapiens, UniProt P53350).
T1 construct: endogenous in cells; host or cells: HeLa
Description: PLK1 protein degradation in HeLa cells, Western blotting (PLK1/GAPDH ratio). It counts as cell-based. The note with it: 6 hours compound incubation; for DC50: measured only if the grade of Dmax is A or B; for Dmax: thymidine block and release, 10 points three-fold from 3 μM, PLK1 to GAPDH ratio, read-out: Dmax. A digest of the protocol: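 PLK1 level measured by Western blot as PLK1/GAPDH in HeLa lysates (15 μg protein per lane). Cells were blocked with 2 mM thymidine 24 h, released 4 h, and exposed 6 h to compound, 10 concentrations, 3-fold steps, top 3 μM.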

The source of these data is patent US20230372498A1, “PLK1 SELECTIVE DEGRADATION INDUCING COMPOUND” (UPPTHERA, priority 2020, published 2023).

T1 sequence (P53350 whole entry): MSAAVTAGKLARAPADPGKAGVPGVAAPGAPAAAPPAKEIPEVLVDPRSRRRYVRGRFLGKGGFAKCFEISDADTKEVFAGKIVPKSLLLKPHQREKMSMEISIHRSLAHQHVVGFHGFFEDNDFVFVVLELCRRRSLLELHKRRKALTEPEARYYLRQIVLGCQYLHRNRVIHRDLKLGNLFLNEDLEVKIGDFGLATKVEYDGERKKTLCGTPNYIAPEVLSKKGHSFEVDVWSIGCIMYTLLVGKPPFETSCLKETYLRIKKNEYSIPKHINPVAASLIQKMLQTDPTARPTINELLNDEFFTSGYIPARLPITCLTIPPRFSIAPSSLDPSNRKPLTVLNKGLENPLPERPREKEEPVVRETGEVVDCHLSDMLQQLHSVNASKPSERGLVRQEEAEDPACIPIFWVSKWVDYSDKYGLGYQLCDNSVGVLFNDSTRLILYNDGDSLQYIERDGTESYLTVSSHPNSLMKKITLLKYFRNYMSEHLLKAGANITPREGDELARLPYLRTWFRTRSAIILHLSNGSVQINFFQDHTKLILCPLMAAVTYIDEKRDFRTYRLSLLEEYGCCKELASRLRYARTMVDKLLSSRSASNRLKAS

`COc1cc(C(=O)N[C@@H]2CCN(C(=O)CCCCCNc3cccc4c3C(=O)N(C3CCC(=O)NC3=O)C4=O)C2)c(F)cc1Nc1ncc2c(n1)N(C1CCCC1)CC(F)(F)C(=O)N2C` (stereo partly drawn) [Compound 120, 4-((9-cyclopentyl-7,7-difluoro-5-methyl-6-oxo-6,7,8,9-tetrahydro-5H-pyrimido[4,5-b][1,4]diazepin-2-yl)amino)-N-((3R)-1-(6-((2-(2,6-dioxopiperidin-3-yl)-1,3-dioxoisoindolin-4-yl)amino)hexanoyl)pyrrolidin-3-yl)-2-fluoro-5-methoxybenzamide]: the 50% degradation concentration (DC50) (usually the concentration giving 50% degradation) is at most 50 nM and the Dmax – broadly, the largest share of the target that was removed – was at least 80%.

In the case of `COc1cc(C(=O)NC2CCN(CCOCCOCCNc3cccc4c3CN(C3CCC(=O)NC3=O)C4=O)CC2)c(F)cc1Nc1ncc2c(n1)N(C1CCCC1)CC(F)(F)C(=O)N2C` (centres unmarked) [Compound 75, 4-((9-cyclopentyl-7,7-difluoro-5-methyl-6-oxo-6,7,8,9-tetrahydro-5H-pyrimido[4,5-b][1,4]diazepin-2-yl)amino)-N-(1-(2-(2-(2-((2-(2,6-dioxopiperidin-3-yl)-1-oxoisoindolin-4-yl)amino)ethoxy)ethoxy)ethyl)piperidin-4-yl)-2-fluoro-5-methoxybenzamide], the DC50 was at most 50 nM and the Dmax was at least 80%.

In the case of `COc1cc(C(=O)NC2CCN(C(=O)CCOCCNc3cccc4c3C(=O)N(C3CCC(=O)NC3=O)C4=O)C2)c(F)cc1Nc1ncc2c(n1)N(C1CCCC1)CC(F)(F)C(=O)N2C` (centres unmarked) [Compound 114, 4-((9-cyclopentyl-7,7-difluoro-5-methyl-6-oxo-6,7,8,9-tetrahydro-5H-pyrimido[4,5-b][1,4]diazepin-2-yl)amino)-N-(1-(3-(2-((2-(2,6-dioxopiperidin-3-yl)-1,3-dioxoisoindolin-4-yl)amino)ethoxy)propanoyl)pyrrolidin-3-yl)-2-fluoro-5-methoxybenzamide], the 50% degradation concentration (DC50) is at most 50 nM and the Dmax was at least 80%.

Consider `COc1cc(C(=O)NCCOCCOCCNc2cccc3c2C(=O)N(C2CCC(=O)NC2=O)C3=O)c(F)cc1Nc1ncc2c(n1)N(C(C)C)CC(F)(F)C(=O)N2C` (centres unmarked) [Example 167, 4-((7,7-difluoro-9-isopropyl-5-methyl-6-oxo-6,7,8,9-tetrahydro-5H-pyrimido[4,5-b][1,4]diazepin-2-yl)amino)-N-(2-(2-(2-((2-(2,6-dioxopiperidin-3-yl)-1,3-dioxoisoindolin-4-yl)amino)ethoxy)ethoxy)ethyl)-2-fluoro-5-methoxybenzamide], for which the greatest degradation seen (Dmax) was in the range of 60 to 80%.

For `COc1cc(C(=O)NC2CCN(CCOCCOCC#Cc3cccc4c3C(=O)N(C3CCC(=O)NC3=O)C4=O)CC2)c(F)cc1Nc1ncc2c(n1)N(C1CCCC1)CC(F)(F)C(=O)N2C` (centres unmarked) [Compound 54, 4-((9-cyclopentyl-7,7-difluoro-5-methyl-6-oxo-6,7,8,9-tetrahydro-5H-pyrimido[4,5-b][1,4]diazepin-2-yl)amino)-N-(1-(2-(2-((3-(2-(2,6-dioxopiperidin-3-yl)-1,3-dioxoisoindolin-4-yl)prop-2-yn-1-yl)oxy)ethoxy)ethyl)piperidin-4-yl)-2-fluoro-5-methoxybenzamide], the DC50 was at most 500 nM and the Dmax fell in the range of 60 to 80%.

For `COc1cc(C(=O)NC2CCN(CCOCCOCCNc3cccc4c3C(=O)N(C3CCC(=O)NC3=O)C4=O)CC2)ccc1Nc1ncc2c(n1)N(C1CCCC1)CC(F)(F)C(=O)N2C` (centres unmarked) [Example 96, 4-((9-cyclopentyl-7,7-difluoro-5-methyl-6-oxo-6,7,8,9-tetrahydro-5H-pyrimido[4,5-b][1,4]diazepin-2-yl)amino)-N-(1-(2-(2-(2-((2-(2,6-dioxopiperidin-3-yl)-1,3-dioxoisoindolin-4-yl)amino)ethoxy)ethoxy)ethyl)piperidin-4-yl)-3-methoxybenzamide], the DC50 was at most 50 nM and the maximal degradation (Dmax) is at least 80%.

`COc1cc(C(=O)NC2CCN(CCCCNc3cccc4c3C(=O)N(C3CCC(=O)NC3=O)C4=O)CC2)c(F)cc1Nc1ncc2c(n1)N(C1CCCC1)CC(F)(F)C(=O)N2C` (centres unmarked) [Compound 8, 4-((9-cyclopentyl-7,7-difluoro-5-methyl-6-oxo-6,7,8,9-tetrahydro-5H-pyrimido[4,5-b][1,4]diazepin-2-yl)amino)-N-(1-(4-((2-(2,6-dioxopiperidin-3-yl)-1,3-dioxoisoindolin-4-yl)amino)butyl)piperidin-4-yl)-2-fluoro-5-methoxybenzamide]: the maximal degradation (Dmax) was below 60%.

On to `COc1cc(C(=O)NC2CCN(CC(=O)NCCOCCNc3cccc4c3C(=O)N(C3CCC(=O)NC3=O)C4=O)CC2)c(F)cc1Nc1ncc2c(n1)N(C1CCCC1)CC(F)(F)C(=O)N2C` (centres unmarked) [Compound 35, 4-((9-cyclopentyl-7,7-difluoro-5-methyl-6-oxo-6,7,8,9-tetrahydro-5H-pyrimido[4,5-b][1,4]diazepin-2-yl)amino)-N-(1-(2-((2-(2-((2-(2,6-dioxopiperidin-3-yl)-1,3-dioxoisoindolin-4-yl)amino)ethoxy)ethyl)amino)-2-oxoethyl)piperidin-4-yl)-2-fluoro-5-methoxybenzamide], for which the 50% degradation concentration (DC50) was at most 50 nM and the Dmax is at least 80%.

Regarding `COc1cc(C(=O)NCCCCCCCc2cccc3c2CN(C2CCC(=O)NC2=O)C3=O)c(F)cc1Nc1ncc2c(n1)N(C1CCCC1)CC(F)(F)C(=O)N2C` (centres unmarked) [Example 166, 4-((9-cyclopentyl-7,7-difluoro-5-methyl-6-oxo-6,7,8,9-tetrahydro-5H-pyrimido[4,5-b][1,4]diazepin-2-yl)amino)-N-(7-(2-(2,6-dioxopiperidin-3-yl)-1-oxoisoindolin-4-yl)heptyl)-2-fluoro-5-methoxybenzamide], the maximal degradation (Dmax) was 60 to 80%.

On to `COc1cc(C(=O)NC2CCN(CCOCCOCCOCCOCCNc3cccc4c3C(=O)N(C3CCC(=O)NC3=O)C4=O)CC2)c(F)cc1Nc1ncc2c(n1)N(C1CCCC1)CC(F)(F)C(=O)N2C` (centres unmarked) [Compound 4, 4-((9-cyclopentyl-7,7-difluoro-5-methyl-6-oxo-6,7,8,9-tetrahydro-5H-pyrimido[4,5-b][1,4]diazepin-2-yl)amino)-N-(1-(14-((2-(2,6-dioxopiperidin-3-yl)-1,3-dioxoisoindolin-4-yl)amino)-3,6,9,12-tetraoxatetradecyl)piperidin-4-yl)-2-fluoro-5-methoxybenzamide], for which the DC50 is at most 50 nM and the greatest degradation seen (Dmax) was at least 80%.

In the case of `COc1cc(C(=O)NC2CCN(CCN3CCN(c4cccc5c4C(=O)N(C4CCC(=O)NC4=O)C5=O)CC3)CC2)c(F)cc1Nc1ncc2c(n1)N(C1CCCC1)CC(F)(F)C(=O)N2C` (centres unmarked) [Compound 66, 4-((9-cyclopentyl-7,7-difluoro-5-methyl-6-oxo-6,7,8,9-tetrahydro-5H-pyrimido[4,5-b][1, 4]diazepin-2-yl)amino)-N-(1-(2-(4-(2-(2,6-dioxopiperidin-3-yl)-1,3-dioxoisoindolin-4-yl)piperazin-1-yl)ethyl)piperidin-4-yl)-2-fluoro-5-methoxybenzamide], the DC50 is at most 500 nM and the greatest degradation seen (Dmax) lay in the range of 60 to 80%.

On to `COc1cc(C(=O)NC2CCN(CCCCCCCCCCNc3cccc4c3C(=O)N(C3CCC(=O)NC3=O)C4=O)CC2)c(F)cc1Nc1ncc2c(n1)N(C1CCCC1)CC(F)(F)C(=O)N2C` (centres unmarked) [Compound 14, 4-((9-cyclopentyl-7,7-difluoro-5-methyl-6-oxo-6,7,8,9-tetrahydro-5H-pyrimido[4,5-b][1,4]diazepin-2-yl)amino)-N-(1-(10-((2-(2,6-dioxopiperidin-3-yl)-1,3-dioxoisoindolin-4-yl)amino)decyl)piperidin-4-yl)-2-fluoro-5-methoxybenzamide], for which the greatest degradation seen (Dmax) was below 60%.

As to `COc1cc(C(=O)N[C@H]2CCN(C(=O)CN3CCN(c4ccc5c(c4)C(=O)N(C4CCC(=O)NC4=O)C5=O)CC3)C2)c(F)cc1Nc1ncc2c(n1)N(C1CCCC1)CC(F)(F)C(=O)N2C` (stereo partly drawn) [Compound 135, 4-((9-cyclopentyl-7,7-difluoro-5-methyl-6-oxo-6,7,8,9-tetrahydro-5H-pyrimido[4,5-b][1,4]diazepin-2-yl)amino)-N-((3S)-1-(2-(4-(2-(2,6-dioxopiperidin-3-yl)-1,3-dioxoisoindolin-5-yl)piperazin-1-yl)acetyl)pyrrolidin-3-yl)-2-fluoro-5-methoxybenzamide], the 50% degradation concentration (DC50) is at most 50 nM and the Dmax was at least 80%.

As for `COc1cc(C(=O)NC2CCN(CCOCCOCCOCCOCCOCCNc3cccc4c3C(=O)N(C3CCC(=O)NC3=O)C4=O)CC2)c(F)cc1Nc1ncc2c(n1)N(C1CCCC1)CC(F)(F)C(=O)N2C` (centres unmarked) [Compound 5, 4-((9-cyclopentyl-7,7-difluoro-5-methyl-6-oxo-6,7,8,9-tetrahydro-5H-pyrimido[4,5-b][1,4]diazepin-2-yl)amino)-N-(1-(17-((2-(2,6-dioxopiperidin-3-yl)-1,3-dioxoisoindolin-4-yl)amino)-3,6,9,12,15-pentaoxaheptadecyl)piperidin-4-yl)-2-fluoro-5-methoxybenzamide], the DC50 is at most 50 nM and the Dmax is at least 80%.

Consider `CN1C(=O)C(F)(F)CN(C2CCCC2)c2nc(Nc3ccc(C(=O)NC4CCN(CCOCCOCCNc5cccc6c5C(=O)N(C5CCC(=O)NC5=O)C6=O)CC4)cc3OCCO)ncc21` (centres unmarked) [Example 98, 4-((9-cyclopentyl-7,7-difluoro-5-methyl-6-oxo-6,7,8,9-tetrahydro-5H-pyrimido[4,5-b][1,4]diazepin-2-yl)amino)-N-(1-(2-(2-(2-((2-(2,6-dioxopiperidin-3-yl)-1,3-dioxoisoindolin-4-yl)amino)ethoxy)ethoxy)ethyl)piperidin-4-yl)-3-(2-hydroxyethoxy)benzamide], for which the DC50 is at most 500 nM and the Dmax was 60 to 80%.
